≈ marks a conversion by molar mass, not a printed value.
Tested on: not listed separately
Assay: The compound was evaluated for area under the curve
Format: ADME

For `CC(C)(O/N=C(\C(=O)N[C@@H]1C(=O)N2C(C(=O)[O-])=C(C[n+]3ccccc3)CS[C@H]12)c1csc(N)n1)C(=O)O` [CEFTAZIDIME], which AUC is on record?
Its AUC is 14 mg/h/L.

Tested on: not listed separately
Assay: The half life period was tested
Format: ADME

Which half-life does the source give for `CC(C)(O/N=C(\C(=O)N[C@@H]1C(=O)N2C(C(=O)[O-])=C(C[n+]3ccccc3)CS[C@H]12)c1csc(N)n1)C(=O)O` [CEFTAZIDIME] here?
Its half-life is 42 min.

Tested on: Citrobacter freundii
Assay: microbe, parasite or virus in culture
Description: Minimum inhibitory concentration in Citrobacter freundii, DR 382031 constitutive depressed type 1

With `CC(C)(O/N=C(\C(=O)N[C@@H]1C(=O)N2C(C(=O)[O-])=C(C[n+]3ccccc3)CS[C@H]12)c1csc(N)n1)C(=O)O` [CEFTAZIDIME] as the compound, how does the MIC read?
The MIC was 128 mg/L (≈ 234 µM).

Tested on: Citrobacter freundii
Assay: microbe, parasite or virus in culture
Remark: another data set of the same source
Description: Minimum inhibitory concentration in Citrobacter freundii, I+382010 inducible type 1 lactamase producer

For `CC(C)(O/N=C(\C(=O)N[C@@H]1C(=O)N2C(C(=O)[O-])=C(C[n+]3ccccc3)CS[C@H]12)c1csc(N)n1)C(=O)O` [CEFTAZIDIME], which MIC is on record?
Its MIC is 0.125 mg/L (≈ 0.229 µM).

Tested on: Pseudomonas aeruginosa
Assay: microbe, parasite or virus in culture
Description: Minimum inhibitory concentration in Pseudomonas aeruginosa, 18S inducible type 1 lactamase producer

Which MIC does the source give for `CC(C)(O/N=C(\C(=O)N[C@@H]1C(=O)N2C(C(=O)[O-])=C(C[n+]3ccccc3)CS[C@H]12)c1csc(N)n1)C(=O)O` [CEFTAZIDIME] here?
The MIC was 2 mg/L (≈ 3.66 µM).

Tested on: Pseudomonas aeruginosa
Assay: microbe, parasite or virus in culture
Remark: another data set of the same source
Description: Minimum inhibitory concentration in Pseudomonas aeruginosa,799WT parent organism

For `CC(C)(O/N=C(\C(=O)N[C@@H]1C(=O)N2C(C(=O)[O-])=C(C[n+]3ccccc3)CS[C@H]12)c1csc(N)n1)C(=O)O` [CEFTAZIDIME], which MIC is on record?
The MIC was 0.125 mg/L (≈ 0.229 µM).

Tested on: Providencia stuartii
Assay: microbe, parasite or virus in culture
Description: Minimum inhibitory concentration in Pseudomonas stuartii, DR 442049 constitutive depressed type 1 lactamase producer

Which MIC does the source give for `CC(C)(O/N=C(\C(=O)N[C@@H]1C(=O)N2C(C(=O)[O-])=C(C[n+]3ccccc3)CS[C@H]12)c1csc(N)n1)C(=O)O` [CEFTAZIDIME] here?
Its MIC is 4 mg/L (≈ 7.32 µM).

Tested on: Providencia stuartii
Assay: microbe, parasite or virus in culture
Remark: another data set of the same source
Description: Minimum inhibitory concentration in Pseudomonas stuartii, I+442019 inducible type 1 lactamase producer

Which MIC does the source give for `CC(C)(O/N=C(\C(=O)N[C@@H]1C(=O)N2C(C(=O)[O-])=C(C[n+]3ccccc3)CS[C@H]12)c1csc(N)n1)C(=O)O` [CEFTAZIDIME] here?
Its MIC is 0.25 mg/L (≈ 0.457 µM).

Tested on: Pseudomonas aeruginosa
Assay: microbe, parasite or virus in culture
Remark: another data set of the same source
Description: Minimum inhibitory concentration in Pseudomonas aeruginosa,799/61 permeability mutant

With `CC(C)(O/N=C(\C(=O)N[C@@H]1C(=O)N2C(C(=O)[O-])=C(C[n+]3ccccc3)CS[C@H]12)c1csc(N)n1)C(=O)O` [CEFTAZIDIME] as the compound, how does the MIC read?
Its MIC is 0.008 mg/L (≈ 0.0146 µM).
